From US20210112813A1, “HERBICIDAL COMPOSITION AND USE THEREOF” (NANTONG JIANGSHAN AGROCHEMICAL & CHEMICALS CO., LTD., priority 2019, published 2021)

Columns and labels:
Type in all cases: in vivo
[1] = tested on: Abutilon; experiment: Example 15 indoor pot planting, death rate / herbicidal speed, weeds in 6-leaf stage
Procedure: (§1) The death rate of weeds after application of the herbicidal composition of the present application was measured and compared with the herbicidal rate when a single component was used. The test used the method of indoor pot planting. At the time of treatment, abutilon and barnyardgrass were in 6-leaf stage.

[2] = tested on: Echinochloacrusgalli; experiment: as above
Procedure: as §1

[3] = tested on: goosegrass (collected from Zhengzhou, Henan); experiment: Example 13 combined effect on weeds, Gowing method
Procedure: (§2) The weed cultivation and test material cultivation method was as follows: quantitative weed seeds abutilon and bristlegrass were respectively sown in a paper cup filled with nutrient soil with a diameter of 7 cm, and then cultivated in the greenhouse after covering the soil, suppressing and watering. The stem and leaf spray treatment was performed when the grass weeds grew to 5-7 leaf stage, and broad-leaved weeds grew to 6-8 leaf stage; the tests were repeated for 3 times. the treatment and drug solution naturally dried, the weeds were placed in the greenhouse to be managed according to conventional methods. According to the suppression or death of the weeds, a visual control effect investigation was conducted 30 days after the treatment.
(§3) The application adopted the Gowing method to evaluate the combined effect of the proposed composition.
(§4) X—Weed control effect when the amount of herbicide component A is P;
(§5) Y—Weed control effect when the amount of herbicide component B is Q;
(§6) E0—Theoretical control effect when the amount of herbicide component A is […];
(§7) E—The measured control effect after the herbicide component A and the herbicide component B are mixed according to the above ratio.
(§8) When E−E0>10%, it is synergism; when E−E0<−10%, it is antagonism; when E−E0 value is between ±10%, it is addition.
(§9) The test targets were horseweed herb collected from Shenyang, Liaoning and goosegrass collected from Zhengzhou, Henan.

[4] = tested on: Horseweed herb (collected from Shenyang, Liaoning); experiment: Example 13 combined effect on weeds, Gowing method
Procedure: as §2, §3, §4, §5, §6, §7, §8, §9

[5] = tested on: Abutilon; experiment: Greenhouse pot test, pre-emergence soil treatment, visual control effect 30 days after treatment, Gowing method
Procedure: (§10) In the present application, indoor combined action of the compound of herbicide active component A and B on weeds was measured to determine the combined effect of the composition on weeds, wherein the structure of the active component A was as follows:
(§11) The weed cultivation method was as follows: quantitative weed seeds abutilon and bristlegrass were respectively sown in a paper cup filled with nutrient soil with a diameter of 7 cm, and then cultivated in the greenhouse after covering the soil, suppressing and watering. The post-emergence stem and leaf treatment was performed when the grass weeds grew to 5-7 leaf stage, broad-leaved weeds grew to 6-8 leaf stage; the pre-emergence soil treatment was performed the second day after sowing, and the early post-emergence treatment was performed after sowing and before emergence; the experiment was repeated 3 times. After the treatment and drug solution naturally dried, the weeds were placed in the greenhouse to be managed according to conventional methods. According to the suppression or death of the weeds, a visual control effect investigation was conducted 30 days after the treatment. The application adopted the Gowing method to evaluate the combined effect of the proposed composition.
as §4, §5, §6, §7, §8

[6] = tested on: Bristlegrass; experiment: as above
Procedure: as §10, §11, §4, §5, §6, §7, §8

[7] = tested on: Amaranthusretroflexus; experiment: Greenhouse pot test (treatment timing not given, Table 7), visual control effect, Gowing method
[8] = tested on: Abutilon; experiment: Greenhouse pot test, post-emergence stem and leaf treatment, visual control effect 30 days after treatment, Gowing method
Procedure: as §10, §11, §4, §5, §6, §7, §8

[9] = tested on: Bristlegrass; experiment: as above
Procedure: as §10, §11, §4, §5, §6, §7, §8

[10] = tested on: Lambsquarters; experiment: Greenhouse pot test, pre-emergence soil treatment, visual control effect 30 days after treatment, Gowing method
[11] = tested on: Bristlegrass; experiment: Greenhouse pot test (treatment timing not given, Tables 6 and 7), visual control effect, Gowing method
Procedure: as §10, §11, §4, §5, §6, §7, §8

[12] = tested on: Abutilon; experiment: Greenhouse pot test (treatment timing not given, Table 6), visual control effect, Gowing method
Procedure: as §10, §11, §4, §5, §6, §7, §8

[13] = tested on: Eclipta alba; experiment: Greenhouse pot test, pre-emergence soil treatment, visual control effect 30 days after treatment, Gowing method
[14] = tested on: Abutilon; experiment: Example 12 indoor pot experiment, stem and leaf spray, visual control effect 30 days after treatment, Gowing method
Procedure: (§12) The combined effect of the composition on the weeds was clarified by the indoor pot experiment.
as §2, §3, §4, §5, §6, §7, §8

[15] = tested on: Bristlegrass; experiment: as above
Procedure: as §12, §2, §3, §4, §5, §6, §7, §8

[16] = Table 11, 7 days after treatment, dose 15 ga.i./hm^2
[17] = Table 11, 7 days after treatment, dose 30 ga.i./hm^2
[18] = Table 11, 7 days after treatment, dose 60 ga.i./hm^2
[19] = Table 11, 7 days after treatment, dose 120 ga.i./hm^2
[20] = Table 11, 15 days after treatment, dose 15 ga.i./hm^2
[21] = Table 11, 15 days after treatment, dose 30 ga.i./hm^2
[22] = Table 11, 15 days after treatment, dose 60 ga.i./hm^2
[23] = Table 11, 15 days after treatment, dose 120 ga.i./hm^2
[24] = Table 11, 30 days after treatment, dose 15 ga.i./hm^2
[25] = Table 11, 30 days after treatment, dose 30 ga.i./hm^2
[26] = Table 11, 30 days after treatment, dose 60 ga.i./hm^2
[27] = Table 11, 30 days after treatment, dose 120 ga.i./hm^2
[28] = Example 13 Table 2, dose 3.75 ga.i./hm^2
[29] = Example 13 Table 2, dose 7.5 ga.i./hm^2
[30] = Example 13 Table 2, dose 15 ga.i./hm^2
[31] = Example 13 Table 2, dose 30 ga.i./hm^2
[32] = Example 12 Table 1, dose 3.75 ga.i./hm^2
[33] = Example 12 Table 1, dose 7.5 ga.i./hm^2
[34] = Example 12 Table 1, dose 15 ga.i./hm^2
[35] = Example 12 Table 1, dose 30 ga.i./hm^2

CCOC(=O)C1(C)CC(c2cc(-n3c(=O)cc(C(F)(F)F)n(C)c3=O)c(F)cc2Cl)=NO1 (stereo not drawn) [active component A, 3-(2-chloro-4-fluoro-5-(3-methyl-2,6-dioxo-4-trifluoromethyl-3,6-dihydropyrimidine-1(2H)-yl)phenyl)-5-methyl-4,5-dihydroisoxazole-5-carboxylic acid ethyl ester]
Control effect (visual observation %) [1, 16]: 46.0% | Control effect (visual observation %) [1, 17]: 68.1% | Control effect (visual observation %) [1, 18]: 82.4% | Control effect (visual observation %) [1, 19]: 94.3% | Control effect (visual observation %) [1, 20]: 54.0% | Control effect (visual observation %) [1, 21]: 62.4% | Control effect (visual observation %) [1, 22]: 93.8% | Control effect (visual observation %) [1, 23]: 100% | Control effect (visual observation %) [1, 24]: 38.6% | Control effect (visual observation %) [1, 25]: 57.3% | Control effect (visual observation %) [1, 26]: 100% | Control effect (visual observation %) [1, 27]: 100% | Control effect (visual observation %) [2, 16]: 16.6% | Control effect (visual observation %) [2, 17]: 18.0% | Control effect (visual observation %) [2, 18]: 31.0% | Control effect (visual observation %) [2, 19]: 34.3% | Control effect (visual observation %) [2, 20]: 18.4% | Control effect (visual observation %) [2, 21]: 19.8% | Control effect (visual observation %) [2, 22]: 36.7% | Control effect (visual observation %) [2, 23]: 40.7% | Control effect (visual observation %) [2, 24]: 20.9% | Control effect (visual observation %) [2, 25]: 43.2% | Control effect (visual observation %) [2, 26]: 32.9% | Control effect (visual observation %) [2, 27]: 42.5% | Measured value E [3, 28]: 5% | Measured value E [3, 29]: 15% | Measured value E [3, 30]: 30% | Measured value E [3, 31]: 45% | Measured value E [4, 28]: 10% | Measured value E [4, 29]: 30% | Measured value E [4, 30]: 35% | Measured value E [4, 31]: 55% | Measured value E ([5]; Table 4, dose 15 ga.i./hm^2): 5% | Measured value E ([5]; Table 4, dose 30 ga.i./hm^2): 20% | Measured value E ([6]; Table 1, dose 7.5 ga.i./hm^2): 0% | Measured value E ([6]; Table 1, dose 15 ga.i./hm^2): 15% | Measured value E ([6]; Table 2, dose 15 ga.i./hm^2): 10% | Measured value E ([6]; Table 2, dose 22.5 ga.i./hm^2): 25% | Measured value E ([6]; Table 3, dose 7.5 ga.i./hm^2): 0% | Measured value E ([6]; Table 3, dose 15 ga.i./hm^2): 10% | Measured value E ([6]; Table 4, dose 15 ga.i./hm^2): 10% | Measured value E ([6]; Table 4, dose 30 ga.i./hm^2): 15% | Measured value E ([7]; dose 15 ga.i./hm^2): 20% | Measured value E ([7]; dose 30 ga.i./hm^2): 65% | Measured value E ([8]; Table 5, dose 7.5 ga.i./hm^2): 10% | Measured value E ([8]; Table 5, dose 15 ga.i./hm^2): 15% | Measured value E ([9]; Table 5, dose 7.5 ga.i./hm^2): 5% | Measured value E ([9]; Table 5, dose 15 ga.i./hm^2): 10% | Measured value E ([10]; Table 1, dose 7.5 ga.i./hm^2): 5% | Measured value E ([10]; Table 1, dose 15 ga.i./hm^2): 20% | Measured value E ([10]; Table 2, dose 15 ga.i./hm^2): 15% | Measured value E ([10]; Table 2, dose 22.5 ga.i./hm^2): 25% | Measured value E ([11]; Table 6, dose 15 ga.i./hm^2): 10% | Measured value E ([11]; Table 6, dose 60 ga.i./hm^2): 35% | Measured value E ([11]; Table 7, dose 15 ga.i./hm^2): 20% | Measured value E ([11]; Table 7, dose 30 ga.i./hm^2): 50% | Measured value E ([12]; dose 15 ga.i./hm^2): 35% | Measured value E ([12]; dose 60 ga.i./hm^2): 45% | Measured value E ([13]; Table 3, dose 7.5 ga.i./hm^2): 0% | Measured value E ([13]; Table 3, dose 15 ga.i./hm^2): 10% | Measured value E [14, 32]: 10% | Measured value E [14, 33]: 25% | Measured value E [14, 34]: 40% | Measured value E [14, 35]: 55% | Measured value E [15, 32]: 5% | Measured value E [15, 33]: 10% | Measured value E [15, 34]: 15% | Measured value E [15, 35]: 25%

CCCCOCN(C(=O)CCl)c1c(CC)cccc1CC [Butachlor]
Measured value E ([6]; Table 3, dose 75 ga.i./hm^2): 45% | Measured value E ([6]; Table 3, dose 150 ga.i./hm^2): 60% | Measured value E ([13]; Table 3, dose 75 ga.i./hm^2): 15% | Measured value E ([13]; Table 3, dose 150 ga.i./hm^2): 25%
